From patent US12558345B2, “CHK1/2 inhibitors for use in the treatment of neuroblastomas and/or soft tissue sarcomas” (Eli Lilly and Company, priority 2015, dated 2026)
pEC50: −log10 of the molar value. Counter-ions that a name gives are not always drawn.

How the values were obtained:
[1] = system: Embryonal Rhabdomyosarcoma xenograft models; experiment: Sarcoma xenograft models by tumor subtype: Embryonal Rhabdomyosarcoma; assay type: in vivo, mouse; details: age of patients 2-7 years
Method: The efficacy of 5-(5-(2-(3-aminopropoxy)-6-methoxyphenyl)-1H-pyrazol-3-ylamino)pyrazine-2-carbonitrile methanesulfonic acid monohydrate is measurable in vivo in mouse models of neuroblastomas and human pediatric and adult sarcomas. 5-(5-(2-(3-Aminopropoxy)-6-methoxyphenyl)-1H-pyrazol-3-ylamino)pyrazine-2-carbonitrile methanesulfonic acid monohydrate (10 mg/kg) can be administered subcutaneously to nude mice bearing either cell-derived xenografts (CDX) or patient-derived xenografts (PDX) of human rhabdomyosarcoma, desmoplastic small round cell tumor (DSRCT), osteosarcoma, and Ewing's sarcoma using a 3 day on, 4 day off b.i.d. dosing schedule. Tumor volume and body weight can be measured two times per week. Tumor-specific parameters can be evaluated by immumohistochemistry.
Expand human RMS cancer cells SJCRH-30 (St. Jude Children's Research Hospital) in culture, harvest, and inject 5×10^6 cells in 200 μL of HBSS subcutaneously into the right rear flank of female athymic nude mice (20-22 g, Harlan Laboratories). […]
(§1) For all “ST” models (encompassing RMS and LMS), patient-derived xenografts are established from viable human tumor tissue and are serially passaged in animals a limited number of times to maintain tumor heterogeneity. […] Tumor response is determined by tumor volume measurement performed twice per week during the course of treatment.

[2] = system: KELLY human NBM cancer cell xenograft; experiment: Xenograft Tumor Model KELLY; assay type: in vivo, mouse; details: comparator day 49, p-value <0.001
Method: The following protocol can be used to measure reductions in tumor volume in response to an active pharmaceutical ingredient. Expand human NBM cancer cells SH-SY5Y (ATCC, #CRL-2226) in culture, harvest, and inject 5×10^6 cells in 200 μL of 1:1 solution of HBSS and Matrigel® subcutaneously into the right rear flank of female CD-1 nu/nu mice (20-24 g, Charles River Laboratories). Expand human NBM cancer cells KELLY (Sigma-#92110411) in culture, harvest, and inject 5×10^6 cells in 200 μL of 1:1 solution of HBSS and Matrigel® subcutaneously into the right rear flank of female CB-17 SCID mice (20-24 g, Charles River Laboratories). Expand human NBM cancer cells IMR-32 (ATCC, #CCL-127) in culture, harvest, and inject 5×10^6 cells in 200 μL of 1:1 solution of HBSS and Matrigel® subcutaneously into the right rear flank of female CB-17 SCID mice (20-24 g, Charles River Laboratories).
as §1

adult sarcoma models = experiment: Adult sarcoma models evaluated in vivo (panel); parameters: species or system mouse
Source text: For all “CTG” models (encompassing human RMS, DSRCT, EWS, OS and LMS patient-derived xenograft models), female NCr nude spontaneous mutant mice (5-8 weeks old, Taconic) are implanted unilaterally in the flank region with tumor fragments harvested from donor animals, each implanted from a specific passage lot.
For all “ST” models (encompassing RMS and LMS), patient-derived xenografts are established from viable human tumor tissue and are serially passaged in animals a limited number of times to maintain tumor heterogeneity. In subcutaneous models, athymic nude mice (Crl:NU(NCr)-Foxn1nu) or CB-17 SCID mice (CRL-CB17/Icr-Prkdcscid/IcrIcoCrl) are injected or implanted unilaterally into the flank with tumor fragments harvested from host animals, each implanted from a specific passage lot. For all studies, measure tumor growth and body weight twice per week beginning on the seventh day after implantation. When tumor size reaches 150-300 mm^3, randomize animals and group into groups of 4-7 animals. Prepare test compound in an appropriate vehicle (e.g. vehicle can be 20% Captisol® in sterile water) and administer subcutaneously for three consecutive days followed by a four day dosing holiday and repeat for a minimum of four weeks. Tumor response is determined by tumor volume measurement performed twice per week during the course of treatment.

[3] = system: Thirty solid tumor cell lines from 13 tumor histotypes; experiment: Monolayer Proliferation and Cytotoxicity Assay (Oncotest, modified PI assay); assay type: cell-based; details: 96 h, 4 days of treatment, PI fluorescence, read-out: EC50, growth inhibition of the majority of the tumor cell lines
Source text: One measure of potency of a CHK1 inhibitor is its ability to inhibit the proliferation of cancer cells in culture due to uncontrolled replication origin activation. (Conti et al. Cell Cycle 6: 2760-2767, 2007) Determination of CHK1 inhibitor antiproliferative activity in cell lines derived from a broad range of tumor types is indicative of which tumor types may be clinically responsive to chemotherapy with CHK1 inhibitors. The following described cellular proliferation assay is run at Oncotest, GmbH in Germany. Thirty solid tumor cell lines are derived from 13 different tumor histotypes, each represented by 1 to 6 different cell lines (Oncotest, GmbH). […] Briefly, adherent cells are harvested from exponential phase cultures by trypsinization, counted and plated in 96 well flat-bottomed microtiter plates at a cell density depending on the cell line (4.000-20.000 cells/well). […] Finally, PI fluorescence is measured using the Cytofluor 4000 microplate reader (excitation k=530 nm, emission k=620 nm) to determine the total viable cell number. Growth inhibition is expressed as Test/Control×100 (% T/C) values. Based on the T/C values, relative IC50 values are determined using non-linear regression (log[conc. of inhibitor] versus response (% T/C)).

## COc1cccc(OCCCN)c1-c1cc(Nc2cnc(C#N)cn2)n[nH]1 [Example 5, 5-(5-(2-(3-Aminopropoxy)-6-methoxyphenyl)-1H-pyrazol-3-ylamino)pyrazine-2-carbonitrile methanesulfonic acid monohydrate]
[1]
  Result of Treatment: Complete Response (models): 1/3 Complete
  Result of Treatment: Stable Disease (models): Response; 1/3
[2]
  % Regression: −88%
Adult sarcoma models
  adult sarcoma models sensitive to single agent treatment (models): 10/12
  adult sarcoma models sensitive to single agent treatment (percent): 83%

## COc1cccc(OCCCN)c1-c1cc(Nc2cnc(C#N)cn2)n[nH]1 [Example 2, 5-(5-(2-(3-Aminopropoxy)-6-methoxyphenyl)-1H-pyrazol-3-ylamino)pyrazine-2-carbonitrile dihydrogen chloride salt]
[3]
  pEC50: > 7.70
